From the kinase profiling compilation of Christmann-Franck et al. (2016)

Experiments:
Experiment in all cases: KINOMEscan competition binding
Details in all cases: compound 1.0 µM
[1] = target: ABL2 (human) (UniProt P42684)
[2] = target: AURKA (human) (UniProt O14965)
[3] = target: AURKB (human) (UniProt Q96GD4)
[4] = target: BMPR1B (human) (UniProt O00238)
[5] = target: CDC42BPA (human) (UniProt Q5VT25)
[6] = target: CDK9 (human) (UniProt P50750)
[7] = target: CSNK1G1 (human) (UniProt Q9HCP0)
[8] = target: CSNK1G2 (human) (UniProt P78368)
[9] = target: DCLK1 (human) (UniProt O15075)
Sequence of DCLK1 (human) (O15075 whole entry, looked up): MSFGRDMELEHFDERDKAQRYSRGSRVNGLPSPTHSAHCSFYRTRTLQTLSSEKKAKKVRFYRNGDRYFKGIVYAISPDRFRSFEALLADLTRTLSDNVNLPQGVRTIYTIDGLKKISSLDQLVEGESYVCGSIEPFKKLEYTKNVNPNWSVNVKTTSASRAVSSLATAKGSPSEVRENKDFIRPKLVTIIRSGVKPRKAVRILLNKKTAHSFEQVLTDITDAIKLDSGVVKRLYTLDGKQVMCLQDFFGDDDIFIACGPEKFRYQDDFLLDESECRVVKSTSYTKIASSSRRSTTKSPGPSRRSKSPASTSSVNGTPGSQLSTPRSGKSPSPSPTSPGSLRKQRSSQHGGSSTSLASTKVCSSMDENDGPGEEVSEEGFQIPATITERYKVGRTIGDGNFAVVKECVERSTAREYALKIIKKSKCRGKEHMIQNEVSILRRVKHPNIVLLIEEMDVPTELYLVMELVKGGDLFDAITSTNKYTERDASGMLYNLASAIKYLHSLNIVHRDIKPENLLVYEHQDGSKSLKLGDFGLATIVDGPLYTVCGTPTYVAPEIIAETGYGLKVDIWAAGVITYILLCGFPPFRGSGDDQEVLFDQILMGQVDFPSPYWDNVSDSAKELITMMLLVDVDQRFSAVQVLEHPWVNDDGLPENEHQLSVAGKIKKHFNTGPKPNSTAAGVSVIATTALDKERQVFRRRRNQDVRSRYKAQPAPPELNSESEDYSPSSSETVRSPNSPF

[10] = system: EGFR (human), P00533 [G719S]
[11] = target: FGR (human) (UniProt P09769)
[12] = target: GRK4 (human) (UniProt P32298)
[13] = target: IKBKE (human) (UniProt Q14164)
Sequence of IKBKE (human) (Q14164 whole entry, looked up): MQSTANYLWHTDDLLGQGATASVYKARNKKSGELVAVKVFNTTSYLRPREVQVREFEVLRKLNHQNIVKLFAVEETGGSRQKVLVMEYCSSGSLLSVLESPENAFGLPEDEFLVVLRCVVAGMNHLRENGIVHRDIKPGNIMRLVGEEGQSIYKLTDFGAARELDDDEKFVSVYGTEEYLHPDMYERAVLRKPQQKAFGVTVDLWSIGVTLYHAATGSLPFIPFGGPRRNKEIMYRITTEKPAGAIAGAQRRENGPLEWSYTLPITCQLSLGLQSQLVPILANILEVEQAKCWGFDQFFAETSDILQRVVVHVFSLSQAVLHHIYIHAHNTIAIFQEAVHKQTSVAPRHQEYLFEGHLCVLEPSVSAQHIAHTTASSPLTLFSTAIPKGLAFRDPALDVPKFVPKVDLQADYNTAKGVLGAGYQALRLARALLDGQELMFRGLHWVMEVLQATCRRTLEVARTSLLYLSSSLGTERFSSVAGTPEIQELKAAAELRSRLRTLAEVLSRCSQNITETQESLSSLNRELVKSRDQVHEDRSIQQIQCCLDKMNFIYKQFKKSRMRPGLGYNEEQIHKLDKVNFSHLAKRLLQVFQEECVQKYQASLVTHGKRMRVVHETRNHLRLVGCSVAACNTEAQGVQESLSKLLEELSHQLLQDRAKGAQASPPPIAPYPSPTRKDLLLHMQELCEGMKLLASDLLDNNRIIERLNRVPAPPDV

[14] = target: JAK1 JH1 catalytic (human) (UniProt P23458)
[15] = target: KDR (human) (UniProt P35968)
[16] = system: KIT (human), P10721 [D816V]
[17] = target: LRRK2 (human) (UniProt Q5S007)
[18] = target: MAP2K6 (human) (UniProt P52564)
[19] = target: MAP3K1 (human) (UniProt Q13233)
[20] = target: MAP3K10 (human) (UniProt Q02779)
[21] = target: MAP3K4 (human) (UniProt Q9Y6R4)
[22] = target: MAPK10 (human) (UniProt P53779)
[23] = system: MET (human), P08581 [M1250T]
[24] = target: NEK7 (human) (UniProt Q8TDX7)
[25] = target: NEK9 (human) (UniProt Q8TD19)
[26] = target: NTRK2 (human) (UniProt Q16620)
[27] = system: PIK3CA (human), P42336 [C420R]
Sequence of PIK3CA (human), P42336 [C420R] (P42336 whole entry C420R, looked up): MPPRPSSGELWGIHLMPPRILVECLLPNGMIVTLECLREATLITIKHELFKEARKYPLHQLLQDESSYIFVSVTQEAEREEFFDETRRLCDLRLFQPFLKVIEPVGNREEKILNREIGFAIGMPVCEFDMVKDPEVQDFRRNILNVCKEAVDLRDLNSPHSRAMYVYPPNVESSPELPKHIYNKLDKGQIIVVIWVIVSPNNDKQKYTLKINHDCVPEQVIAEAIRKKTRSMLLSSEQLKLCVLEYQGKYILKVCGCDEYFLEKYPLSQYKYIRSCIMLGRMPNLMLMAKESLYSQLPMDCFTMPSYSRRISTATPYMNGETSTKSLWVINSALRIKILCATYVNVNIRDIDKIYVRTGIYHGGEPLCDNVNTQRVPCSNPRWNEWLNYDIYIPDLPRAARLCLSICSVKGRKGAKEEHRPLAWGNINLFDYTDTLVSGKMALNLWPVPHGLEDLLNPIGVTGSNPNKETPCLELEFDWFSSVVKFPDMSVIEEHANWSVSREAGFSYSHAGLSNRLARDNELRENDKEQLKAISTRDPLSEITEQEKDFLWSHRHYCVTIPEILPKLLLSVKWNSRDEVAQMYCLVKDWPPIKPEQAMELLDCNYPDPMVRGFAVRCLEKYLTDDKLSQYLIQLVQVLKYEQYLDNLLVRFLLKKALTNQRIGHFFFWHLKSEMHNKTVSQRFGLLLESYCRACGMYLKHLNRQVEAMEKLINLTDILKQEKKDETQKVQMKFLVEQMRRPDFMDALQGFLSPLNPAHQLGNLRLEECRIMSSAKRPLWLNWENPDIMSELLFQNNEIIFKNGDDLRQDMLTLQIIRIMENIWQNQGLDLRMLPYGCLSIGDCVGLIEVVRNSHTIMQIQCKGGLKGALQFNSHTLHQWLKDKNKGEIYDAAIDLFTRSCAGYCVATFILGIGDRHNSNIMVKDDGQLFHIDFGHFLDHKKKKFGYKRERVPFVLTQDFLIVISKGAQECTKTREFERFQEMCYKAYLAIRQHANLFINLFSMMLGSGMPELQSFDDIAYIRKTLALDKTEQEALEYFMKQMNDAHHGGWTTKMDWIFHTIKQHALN

[28] = system: PIK3CA (human), P42336 [Q546K]
Sequence of PIK3CA (human), P42336 [Q546K] (P42336 whole entry Q546K, looked up): as the sequence (P42336 whole entry C420R, looked up) above, with R420C, Q546K counted along it

[29] = target: PIM2 (human) (UniProt Q9P1W9)
Sequence of PIM2 (human) (Q9P1W9 whole entry, looked up): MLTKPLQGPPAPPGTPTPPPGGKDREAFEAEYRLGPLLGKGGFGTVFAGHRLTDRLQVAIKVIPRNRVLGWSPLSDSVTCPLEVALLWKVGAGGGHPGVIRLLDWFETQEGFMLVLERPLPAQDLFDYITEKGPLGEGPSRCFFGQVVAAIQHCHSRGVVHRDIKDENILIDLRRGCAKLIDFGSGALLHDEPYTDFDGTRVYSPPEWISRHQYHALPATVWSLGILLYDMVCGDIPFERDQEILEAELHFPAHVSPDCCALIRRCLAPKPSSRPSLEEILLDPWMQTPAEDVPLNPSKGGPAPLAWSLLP

[30] = target: PIM3 (human) (UniProt Q86V86)
[31] = target: PIP4K2B (human) (UniProt P78356)
[32] = target: PIP4K2C (human) (UniProt Q8TBX8)
[33] = target: PTK2B (human) (UniProt Q14289)
[34] = target: PTK6 (human) (UniProt Q13882)
Sequence of PTK6 (human) (Q13882 whole entry, looked up): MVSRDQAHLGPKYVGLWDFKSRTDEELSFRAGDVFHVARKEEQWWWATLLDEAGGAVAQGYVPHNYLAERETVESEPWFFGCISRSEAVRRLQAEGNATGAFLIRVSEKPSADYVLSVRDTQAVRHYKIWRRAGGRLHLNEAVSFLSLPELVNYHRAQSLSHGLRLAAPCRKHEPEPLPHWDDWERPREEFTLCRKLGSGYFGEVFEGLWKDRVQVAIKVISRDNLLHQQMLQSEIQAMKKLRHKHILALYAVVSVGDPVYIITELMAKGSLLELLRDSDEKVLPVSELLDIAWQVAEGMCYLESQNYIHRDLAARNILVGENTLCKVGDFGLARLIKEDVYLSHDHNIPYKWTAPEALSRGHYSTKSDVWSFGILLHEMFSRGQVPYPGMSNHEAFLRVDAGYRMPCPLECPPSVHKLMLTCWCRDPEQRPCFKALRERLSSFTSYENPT

[35] = system: RET (human), P07949 [M918T]
[36] = system: RET (human), P07949 [V804L]
[37] = target: RIPK2 (human) (UniProt O43353)
[38] = target: SGK110 (human) (UniProt P0C264)
[39] = target: SNRK (human) (UniProt Q9NRH2)
[40] = target: SRPK1 (human) (UniProt Q96SB4)
[41] = target: STK32A (human) (UniProt Q8WU08)
Sequence of STK32A (human) (Q8WU08 whole entry, looked up): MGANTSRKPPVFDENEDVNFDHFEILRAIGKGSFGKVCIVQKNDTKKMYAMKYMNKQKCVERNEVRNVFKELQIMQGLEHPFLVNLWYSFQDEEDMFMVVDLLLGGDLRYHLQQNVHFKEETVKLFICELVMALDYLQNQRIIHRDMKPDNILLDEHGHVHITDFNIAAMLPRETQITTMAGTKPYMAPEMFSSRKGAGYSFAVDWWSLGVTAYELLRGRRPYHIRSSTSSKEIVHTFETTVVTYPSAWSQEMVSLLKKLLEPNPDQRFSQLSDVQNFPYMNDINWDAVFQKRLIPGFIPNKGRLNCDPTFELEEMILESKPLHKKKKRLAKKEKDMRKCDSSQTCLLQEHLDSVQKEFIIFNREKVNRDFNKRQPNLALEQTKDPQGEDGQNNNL

Sequence of ABL2 (human) (P42684 whole entry, looked up): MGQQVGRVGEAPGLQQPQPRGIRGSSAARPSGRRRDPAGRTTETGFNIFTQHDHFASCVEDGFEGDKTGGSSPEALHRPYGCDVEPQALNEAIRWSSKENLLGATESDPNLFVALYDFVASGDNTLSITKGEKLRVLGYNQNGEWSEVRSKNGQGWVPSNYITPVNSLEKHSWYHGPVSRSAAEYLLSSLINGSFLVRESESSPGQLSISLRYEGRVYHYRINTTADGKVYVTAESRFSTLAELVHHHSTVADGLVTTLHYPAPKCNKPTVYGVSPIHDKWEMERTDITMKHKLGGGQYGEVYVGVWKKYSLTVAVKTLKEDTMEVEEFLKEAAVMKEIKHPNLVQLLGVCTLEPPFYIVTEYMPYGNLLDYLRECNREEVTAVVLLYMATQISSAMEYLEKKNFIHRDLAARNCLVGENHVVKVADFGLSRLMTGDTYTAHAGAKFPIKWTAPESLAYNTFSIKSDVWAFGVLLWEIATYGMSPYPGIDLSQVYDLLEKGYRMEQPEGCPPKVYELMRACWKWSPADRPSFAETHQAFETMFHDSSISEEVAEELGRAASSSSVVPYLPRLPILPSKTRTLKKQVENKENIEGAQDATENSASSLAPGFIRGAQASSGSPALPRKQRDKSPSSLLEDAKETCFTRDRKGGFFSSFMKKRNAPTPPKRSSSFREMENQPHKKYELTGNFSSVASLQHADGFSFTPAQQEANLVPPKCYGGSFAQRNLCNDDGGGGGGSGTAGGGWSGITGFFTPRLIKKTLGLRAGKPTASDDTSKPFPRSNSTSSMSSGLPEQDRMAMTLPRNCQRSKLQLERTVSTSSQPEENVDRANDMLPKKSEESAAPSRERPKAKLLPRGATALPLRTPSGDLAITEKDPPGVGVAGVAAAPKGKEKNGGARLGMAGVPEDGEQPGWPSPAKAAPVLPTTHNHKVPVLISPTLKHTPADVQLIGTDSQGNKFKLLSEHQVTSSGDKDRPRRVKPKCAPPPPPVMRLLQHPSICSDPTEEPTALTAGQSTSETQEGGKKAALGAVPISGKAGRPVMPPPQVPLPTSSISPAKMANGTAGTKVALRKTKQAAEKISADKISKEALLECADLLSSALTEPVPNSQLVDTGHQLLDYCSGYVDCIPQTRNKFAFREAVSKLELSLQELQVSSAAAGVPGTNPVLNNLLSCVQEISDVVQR

COCCNCCCn1c(C(=O)CF)c(-c2ccc(C)cc2)c2c(N)ncnc21
kinase still bound, per cent of control [1]: 100% | kinase still bound, per cent of control [2]: 92% | kinase still bound, per cent of control [3]: 62% | kinase still bound, per cent of control [4]: 85% | kinase still bound, per cent of control [5]: 92% | kinase still bound, per cent of control [6]: 100% | kinase still bound, per cent of control [7]: 91% | kinase still bound, per cent of control [8]: 100% | kinase still bound, per cent of control [9]: 100% | kinase still bound, per cent of control [10]: 90% | kinase still bound, per cent of control [11]: 93% | kinase still bound, per cent of control [12]: 85% | kinase still bound, per cent of control [13]: 100% | kinase still bound, per cent of control [14]: 100% | kinase still bound, per cent of control [15]: 85% | kinase still bound, per cent of control [16]: 96% | kinase still bound, per cent of control [17]: 100% | kinase still bound, per cent of control [18]: 97% | kinase still bound, per cent of control [19]: 100% | kinase still bound, per cent of control [20]: 77% | kinase still bound, per cent of control [21]: 100% | kinase still bound, per cent of control [22]: 100% | kinase still bound, per cent of control [23]: 95% | kinase still bound, per cent of control [24]: 100% | kinase still bound, per cent of control [25]: 99% | kinase still bound, per cent of control [26]: 74% | kinase still bound, per cent of control [27]: 100% | kinase still bound, per cent of control [28]: 100% | kinase still bound, per cent of control [29]: 99% | kinase still bound, per cent of control [30]: 100% | kinase still bound, per cent of control [31]: 94% | kinase still bound, per cent of control [32]: 100% | kinase still bound, per cent of control [33]: 100% | kinase still bound, per cent of control [34]: 90% | kinase still bound, per cent of control [35]: 100% | kinase still bound, per cent of control [36]: 100% | kinase still bound, per cent of control [37]: 39% | kinase still bound, per cent of control [38]: 100% | kinase still bound, per cent of control [39]: 99% | kinase still bound, per cent of control [40]: 100% | kinase still bound, per cent of control [41]: 94%
